In patent US20160024175A1, “CHEMOTHERAPY-RESISTANT IMMUNE CELLS” (priority 2013, published 2016):
Like-named read-outs stand apart in the source and are kept apart here.

What was measured:
U373.eGFP.FFLuc cells = experiment: Coculture of U373.eGFP.FFLuc tumor cells with T cells with or without TMZ, tumor killing by fluorescence microscopy; type: cell-based; conditions: TMZ with non-transduced (NT) T cells
Method: Tumor killing was evaluated by fluorescence microscopy.
Both TMZ and HER2.CAR T cells have anti-GBM activity on their own; however, it is unknown whether combining the agents provides additional benefit.

HER2.CAR T cells = experiment: Expansion of HER2.CAR T cells with IL-2 under repeated TMZ treatment (cell counts every three days); type: cell-based; conditions: 100 μM TMZ, retreated every three days, 100 U/ml IL-2; n=4 donors; p<0.05
Method: 1×10^6 HER2.CAR T cells were plated on day 1 with 100 U/ml of IL-2 and treated with 100 μM TMZ. Every three days, the T cells were counted, given fresh IL-2, and retreated with TMZ.
To do this, 1×10^6 HER2.CAR T cells were plated with 100 U/ml of IL-2 and treated with 100 μM TMZ (day 1). Every three days, the T cells were counted, given fresh IL-2, and re-treated with TMZ.

[1] = tested on: glioblastoma multiforme (GBM); conditions: cited from earlier work; for median overall survival: GBM patients receiving TMZ

Which “antitumor activity / tumor killing” value (U373.eGFP.FFLuc cells) does the source give for `Cn1nnc2c(C(N)=O)ncn2c1=O` [TMZ, 3-methyl-4-oxo-3H,4H-imidazo[4,3-d][1,2,3,5]tetrazine-8-carboxamide] here?
The value was “limited antitumor activity”.

What about the “effect of TMZ on T-cell expansion” value (HER2.CAR T cells) of the same compound?
Its value is “effectively prevented T-cell expansion”.

What about the median overall survival ([1]; methylated MGMT promoters) of the same compound?
The median overall survival was 21.7 months.

And the median overall survival ([1]; unmethylated MGMT promoters)?
The median overall survival was 12.7 months.

And the overall survival ([1]; phase III trial, TMZ with radiation therapy vs. radiotherapy alone, GBM patients)?
Its overall survival is “significantly improve the overall survival”.
